The values below are quoted from earlier work in patent publication US9884022B2, “Controlled release pharmaceutical compositions of tapentadol” (LUPIN LIMITED, priority 2010, dated 2018).

The conditions of the series: background statement on immediate release compositions.

For the compound `CCC(c1cccc(O)c1)C(C)CN(C)C` (stereo not shown) [tapentadol, 3-(3-dimethylamino-1-ethyl-2-methyl-propyl) phenol], the half life is 4 h.
